Assay results published in the supplement of paper PMC10307832.

Compound: C1CN(CCN1)C2=CC=C(C=C2)C3=CN4C(=C(C=N4)C5=CC=NC6=CC=CC=C56)N=C3 [DM3189]
Assay: relative viability (nuclei count vs DMSO), 5 days (fraction); higher = more cells survive
Outline: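 Five library-drug doses, separated by factors of √10, were pinned into 1536-well plates holding lung cancer cell lines after an overnight stay at 37 °C. Cells were fixed, permeabilised and Hoechst-stained in one step after 5 days without medium change, then imaged at 4×. Viability compares treated-well with vehicle-well nuclei, counted in MetaXpress, as a median across plates. Passing plates had control CV below 25% and at least one doubling.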

Cell Line	relative viability (0.08 µM)	relative viability (0.253 µM)	relative viability (0.8 µM)	relative viability (2.53 µM)
201T	0.981	0.981	0.843	1.04
A549	1.06	1.06	0.993	1.08
A-427	1.19	1	0.93	0.947
ABC-1	1.12	0.847	0.752	0.829
BEN	0.929	0.925	0.967	0.981
CAL-12T	1.06	0.927	0.975	1.09
COR-L23	1.06	0.95	0.758	0.95
COR-L 105	1.22	0.95	0.853	0.808
ChaGo-K-1	1.01	0.997	0.971	1
EKVX	1.21	0.949	0.887	1
EMC-BAC-2	1.09	0.898	0.936	1.22
EPLC-272H	0.975	0.823	0.917	0.896
H3255	1.18	0.979	0.899	1.13
HARA	1.07	0.921	1.01	1.04
HCC-15	1.07	0.923	0.91	0.942
HCC-44	1.05	0.957	0.869	0.934
HCC-78	1.03	0.925	0.845	0.933
HCC-366	1.05	0.905	0.925	0.989
HCC-827	1.02	1	0.956	0.983
HOP-62	1.08	0.945	0.932	1.03
IA-LM	1.2	1.11	1.06	1.21
LC-2-ad	1.07	1	0.874	1.05
LCLC-97TM1	1.06	0.806	0.797	0.644
LCLC-103H	1.06	0.935	0.951	1.02
LK-2	0.687	0.657	0.633	0.537
LOU-NH91	1.16	0.921	0.832	0.924

Cell Line	relative viability (0.08 µM)	relative viability (0.253 µM)	relative viability (0.8 µM)	relative viability (2.53 µM)
LU99A	1.05	0.912		0.933
LXF-289	0.996	1.04	0.973	1.14
NCI-H23	1.13	0.805	0.804	0.842
NCI-H322M	1.06	0.907	0.874	0.707
NCI-H358	1.01	0.869	0.843	0.913
NCI-H441	1.26	0.955	1.02	0.981
NCI-H460	1.01	0.949	0.855	1.12
NCI-H520	1.05	0.79	0.844	0.683
NCI-H522	1.27	0.891	0.882	0.886
NCI-H596	1.13	0.85	1.05	0.996
NCI-H647	0.954	0.824	0.734	0.794
NCI-H650	1.09	0.848	0.877	0.965
NCI-H661	1.04	0.949	1.02	1.11
NCI-H727	1.02	0.815	0.735	0.986
NCI-H838	0.978	0.909	0.764	0.922
NCI-H1355	1.01	0.968	0.842	0.951
NCI-H1395	1.03	0.834	0.697	0.945
NCI-H1437	1.05	0.995	0.989	1
NCI-H1563	1.06	0.958	1.03	1.12
NCI-H1650	1.09	0.923	0.901	0.928
NCI-H1651	1.03	1.02	0.96	1.16
NCI-H1666	1.04	1.02	1.1	1.12
NCI-H1703	0.951	0.916	0.825	0.767
NCI-H1734	1.13	0.95	0.916	0.888
NCI-H1755	0.989	0.987	0.811	1.04
NCI-H1792	1.27	1	0.712	0.868

Cell Line	relative viability (0.08 µM)	relative viability (0.253 µM)	relative viability (0.8 µM)	relative viability (2.53 µM)
NCI-H1793	1.22	0.991	0.929	1.01
NCI-H1915	1.03	0.942	0.793	0.87
NCI-H1944	1.19	0.991		1.02
NCI-H1975	1.07	0.972	0.793	0.881
NCI-H1993	1.01	0.913	0.831	1.05
NCI-H2009	1.1	1.03	0.893	1.05
NCI-H2023	1	0.955	0.978	0.854
NCI-H2085	1	0.933	1.04	1.03
NCI-H2087	1.26	1.02	1.08	0.979
NCI-H2126	1.12	1.01	0.961	0.942
NCI-H2170	1.06	1.01	0.981	0.946
NCI-H2228	1.18	1.1	0.811	0.447
NCI-H2342	0.988	0.99	0.948	0.97
NCI-H2347	1.2	1.03	0.945	1.02
NCI-H2405	1.1	0.975	0.951	1.03
NCI-H3122	0.992	0.901	0.905	0.975
PC-3 [JPC-3]	1.13	1.01	1.04	1.1
PC-14	1.14	0.954	0.871	0.932
RERF-LC-KJ	1.16	1.04	1.04	1.05
SK-LU-1	1.03	0.793	0.814	0.749
SK-MES-1	1.04	0.981	0.853	0.94
SW 900	1.06	0.694	0.882	0.887
SW 1573	1.06	0.938	0.903	0.81
UMC-11	1.05	0.958	0.816	0.795
